In patent US11242334B2, “Heterocyclic compounds as kinase inhibitors, compositions comprising the heterocyclic compound, and methods of use thereof” (JS INNOPHARM (SHANGHAI) LTD, priority 2017, dated 2022):

Tests used:
human ERK2 = target: T1, human ERK2 (Homo sapiens, UniProt P28482); assay: LanthaScreen TR-FRET enzymatic assay, ERK2; conditions: IC50 values of ERK2 biochemical activity; 5 μM ATP, 400 nM ATF2-GFP substrate
T1 construct: recombinantly expressed as GST-tagged full-length protein purified from E. coli; GST; purchased Invitrogen PV3311; host or cells: E. coli
T1 sequence (P28482 whole entry): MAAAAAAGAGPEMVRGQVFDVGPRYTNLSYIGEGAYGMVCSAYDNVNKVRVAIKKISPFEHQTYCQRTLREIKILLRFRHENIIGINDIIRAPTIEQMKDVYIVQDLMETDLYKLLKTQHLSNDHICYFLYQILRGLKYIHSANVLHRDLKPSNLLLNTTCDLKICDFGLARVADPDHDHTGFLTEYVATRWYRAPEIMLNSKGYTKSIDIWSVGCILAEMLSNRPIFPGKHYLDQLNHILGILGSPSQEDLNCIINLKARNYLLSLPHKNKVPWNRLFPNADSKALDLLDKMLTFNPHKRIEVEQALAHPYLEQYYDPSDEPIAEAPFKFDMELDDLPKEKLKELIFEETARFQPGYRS
Protocol: Compounds were tested in a LanthaScreen™ time-resolved fluorescence energy transfer (TR-FRET) enzymatic assay from Invitrogen. The assay used human ERK2 (Mitogen Activated Kinase 1, Invitrogen, Cat. PV3311) recombinantly expressed as GST-tagged full-length protein purified from E. coli and activated in vitro with MAP2K1. The substrate was a recombinant truncated version (residues 19-96) of ATF2 fused with Green Fluorescent Protein (Invitrogen, Cat. PV4445). Test compounds were prepared and diluted in DMSO in 3-fold serial dilutions to 100× of the final testing concentrations. The compounds were then further diluted to 4× by the kinase reaction buffer (Invitrogen, Cat. PV3189). The enzymatic reaction for compound testing was performed in a white 384-well polypropylene plate (Packard, Cat. 6005214) with a total reaction volume of 10 μl containing 20 ng/ml ERK2, 400 nM substrate, and 5 μM ATP that is around its Km. The assay started with loading 2.5 μl of ERK2 diluted in kinase reaction buffer to wells, followed by addition of equal volume of 4× compounds for 15-min incubation at the room temperature for pre-treatment. The enzymatic reaction was initiated by addition of 5 μl of mixture of the substrate and ATP prepared in kinase reaction buffer. After one hour reaction, 10 μl mixture of EDTA (final 10 mM) and terbium-labeled anti-pATF2 (pThr71) antibody (final 2 nM) (Invitrogen, Cat. PV4451) prepared in TR-FRET antibody dilution buffer (Invitrogen, Cat. PV3574) was added to stop the enzymatic reaction and produce TR-FRET signals. After 30 minutes of incubation at room temperature, the plate was read in Tecan Infinite F200 Pro with the following settings: Excitation 340 nm (30)/Emission1 495 nm (10)/Emission2 520 nm (25). The TR-FRET values were dimensionless numbers that were calculated as the ratio of the acceptor ([…]) signal to the donor (Terbium) signal. Percent of control was calculated as the percentage of compound-treated vs 1% DMSO vehicle-treated. The dose-response curves were generated and the ICsos were calculated by nonlinear sigmoid curve fitting using GraphPad Prism.
The IC50 values of ERK2 biochemical activity for the examples disclosed herein are listed in Table 3, A: ≤10 nM; B: >10 nM and ≤50 nM; C: >50 nM and ≤100 nM; D.>100 nM.

Colo205 cell line = assay: Colo205 cell proliferation assay (MTT assay, WST-8 readout); assay type: cell-based; conditions: Homo sapiens; IC50 values of growth inhibition in Colo 205 cells; 72 hours
Protocol: Compounds disclosed herein were tested for the inhibition of ERK2 by a Colo205 cell proliferation assay commonly known as MTT assay. In this assay, a complete media was prepared by adding 10% fetal bovine serum to RPMI-1640 medium (Life technology). Colon cancer cells (Colo205 cell line) were added to each of 88 wells of a 96 well plate at a seeding density of 5,000 cells/well/90 μL. The cells were allowed to attach to the plate by incubating at 37° C. for 24 hours. The compound was dissolved in DMSO (SIGMA). A solution of test compound was prepared in complete media by serial dilution to obtain the following concentrations: 500 μM, 150 μM, 50 μM, 15 μM, 5 μM, 1.5 μM, 0.5 μM, 0.15 μM and 0.05 μM. The test compound solution (10 μL) was added to each of 80 cell-containing wells. The final concentrations of the compound were following: 50 μM, 15 μM, 5 μM, 1.5 μM, 0.5 μM, 0.15 μM, 0.05 μM, 0.015 μM and 0.005 μM. The final concentration of DMSO is 0.5%. To the 8 remaining cell-containing wells, only complete media (containing 0.5% DMSO) was added to form a control group in order to measure maximal proliferation. To the remaining 8 empty wells, complete media was added to for a vehicle control group in order to measure background. The plates were incubated at 37° C. for 72 hours. 10 μL WST-8 solution (DOJINDO, Cell Counting KIT-8) was added to each well. The plates were further incubated at 37° C. for 2 hours, and then read for the absorbance using a microplate reader at 450 nm.
The IC50 values of growth inhibition in Colo 205 cells for Compounds disclosed are listed in Table 3, A′: ≤0.5 μM; B′: >0.5 μM and ≤1 μM; C′: >1.0 μM and ≤5 uM; D′: >5 μM.

| IC50 (human ERK2) | IC50 (Colo205 cell line) | SMILES |
| --- | --- | --- |
| < 10 nM | ≤ 500 nM | Cc1cc(-c2n[nH]c3ccc(-c4ccn([C@H](CO)c5cc(F)cc(Br)c5)c(=O)c4)cc23)ccn1 [Example 26, (S)-1-(1-(3-bromo-5-fluorophenyl)-2-hydroxyethyl)-4-(3-(2-methylpyridin-4-yl)-1H-indazol-5-yl)pyridin-2(1H)-one] |
| < 10 nM | ≤ 500 nM | Cc1cc(-c2n[nH]c3ccc(-c4ccn([C@H](CO)c5cc(Cl)ccc5F)c(=O)c4)cc23)ccn1 [Example 28, (S)-1-(1-(5-chloro-2-fluorophenyl)-2-hydroxyethyl)-4-(3-(2-methylpyridin-4-yl)-1H-indazol-5-yl)pyridin-2(1H)-one] |
| < 10 nM | ≤ 500 nM | Cc1cc(-c2n[nH]c3ccc(-c4ccn([C@H](CO)c5ccc(F)c(Cl)c5)c(=O)c4)cc23)ccn1 [Example 30, (S)-1-(1-(3-chloro-4-fluorophenyl)-2-hydroxyethyl)-4-(3-(2-methylpyridin-4-yl)-1H-indazol-5-yl)pyridin-2(1H)-one] |
| < 10 nM | 1000 to 5000 nM | Cc1cc(-c2n[nH]c3ccc(-c4ccn([C@@H](CO)c5cccc(Cl)c5)c(=O)c4)cc23)ccn1 [Example 31, (R)-1-(1-(3-chlorophenyl)-2-hydroxyethyl)-4-(3-(2-methylpyridin-4-yl)-1H-indazol-5-yl)pyridin-2(1H)-one] |
| < 10 nM | ≤ 500 nM | Cc1cc(-c2n[nH]c3ccc(-c4ccn([C@H](CO)c5ccc(Cl)cc5)c(=O)c4)cc23)ccn1 [Example 32, (S)-1-(1-(4-chlorophenyl)-2-hydroxyethyl)-4-(3-(2-methylpyridin-4-yl)-1H-indazol-5-yl)pyridin-2(1H)-one] |
| < 10 nM | ≤ 500 nM | Cc1cc(-c2n[nH]c3ccc(-c4ccn([C@H](CO)c5cccc(Cl)c5F)c(=O)c4)cc23)ccn1 [Example 35, (S)-1-(1-(3-chloro-2-fluorophenyl)-2-hydroxyethyl)-4-(3-(2-methylpyridin-4-yl)-1H-indazol-5-yl)pyridin-2(1H)-one] |
| < 10 nM | ≤ 500 nM | Cc1cc(-c2n[nH]c3ccc(-c4ccn([C@H](CO)c5ccc(F)c(Br)c5)c(=O)c4)cc23)ccn1 [Example 36, (S)-1-(1-(3-bromo-4-fluorophenyl)-2-hydroxyethyl)-4-(3-(2-methylpyridin-4-yl)-1H-indazol-5-yl)pyridin-2(1H)-one] |

The next lines start with the molecule.

| SMILES | IC50 (human ERK2) | IC50 (Colo205 cell line) |
| --- | --- | --- |
| Cc1cc(-c2n[nH]c3ncc(-c4ccn([C@H](CO)c5ccc(Cl)c(F)c5)c(=O)c4)cc23)ccn1 [Example 24, (S)-1-(1-(4-chloro-3-fluorophenyl)-2-hydroxyethyl)-4-(3-(2-methylpyridin-4-yl)-1H-pyrazolo[3,4-b]pyridin-5-yl)pyridin-2(1H)-one] | 50 to 100 nM | 1000 to 5000 nM |
| O=c1cc(-c2ccc3[nH]nc(N4CCC(O)C4)c3c2)ccn1[C@H](CO)c1cccc(Cl)c1 (stereo partly drawn) [Example 27, 1-((S)-1-(3-chlorophenyl)-2-hydroxyethyl)-4-(3-(3-hydroxypyrrolidin-1-yl)-1H-indazol-5-yl)pyridin-2(1H)-one] | < 10 nM | 1000 to 5000 nM |
| Cc1cc(-c2n[nH]c3ccc(-c4cc[nH]c(=O)c4)cc23)ccn1 [Example 29, 4-(3-(2-methylpyridin-4-yl)-1H-indazol-5-yl)pyridin-2(1H)-one] | < 10 nM | 1000 to 5000 nM |
| Cc1cc(-c2n[nH]c3ccc(-c4ccn([C@H](CO)c5cc(F)cc(C(F)(F)F)c5)c(=O)c4)cc23)ccn1 [Example 33, (S)-1-(1-(3-fluoro-5-(trifluoromethyl)phenyl)-2-hydroxyethyl)-4-(3-(2-methylpyridin-4-yl)-1H-indazol-5-yl)pyridin-2(1H)-one] | < 10 nM | ≤ 500 nM |
| CC(C)Oc1ccc(-c2n[nH]c3ccc(-c4ccn([C@H](CO)c5ccc(F)c(Cl)c5)c(=O)c4)cc23)cn1 [Example 34, (S)-1-(1-(3-chloro-4-fluorophenyl)-2-hydroxyethyl)-4-(3-(6-isopropoxypyridin-3-yl)-1H-indazol-5-yl)pyridin-2(1H)-one] | 10 to 50 nM | 1000 to 5000 nM |
| Cn1cc(-c2n[nH]c3ccc(-c4ccn([C@H](CO)c5ccc(F)c(Cl)c5)c(=O)c4)cc23)cn1 [Example 37, (S)-1-(1-(3-chloro-4-fluorophenyl)-2-hydroxyethyl)-4-(3-(1-methyl-1H-pyrazol-4-yl)-1H-indazol-5-yl)pyridin-2(1H)-one] | < 10 nM | ≤ 500 nM |
| Cn1cc(-c2n[nH]c3ccc(-c4ccn([C@H](CO)c5ccc(Cl)c(F)c5)c(=O)c4)cc23)cn1 [Example 38, (S)-1-(1-(4-chloro-3-fluorophenyl)-2-hydroxyethyl)-4-(3-(1-methyl-1H-pyrazol-4-yl)-1H-indazol-5-yl)pyridin-2(1H)-one] | < 10 nM | 500 to 1000 nM |
| Cn1cc(-c2n[nH]c3ccc(-c4ccn([C@H](CO)c5cc(F)cc(Br)c5)c(=O)c4)cc23)cn1 [Example 39, (S)-1-(1-(3-bromo-5-fluorophenyl)-2-hydroxyethyl)-4-(3-(1-methyl-1H-pyrazol-4-yl)-1H-indazol-5-yl)pyridin-2(1H)-one] | < 10 nM | ≤ 500 nM |
| CC(C)Oc1ccc(-c2n[nH]c3ccc(-c4ccn([C@H](CO)c5cc(F)cc(Br)c5)c(=O)c4)cc23)cn1 [Example 40, (S)-1-(1-(3-bromo-5-fluorophenyl)-2-hydroxyethyl)-4-(3-(6-isopropoxypyridin-3-yl)-1H-indazol-5-yl)pyridin-2(1H)-one] | < 10 nM | ≤ 500 nM |
| Cn1cc(-c2n[nH]c3ccc(-c4ccn([C@H](CO)c5cc(F)cc(C(F)(F)F)c5)c(=O)c4)cc23)cn1 [Example 41, (S)-1-(1-(3-fluoro-5-(trifluoromethyl)phenyl)-2-hydroxyethyl)-4-(3-(1-methyl-1H-pyrazol-4-yl)-1H-indazol-5-yl)pyridin-2(1H)-one] | < 10 nM | ≤ 500 nM |
| Cn1cc(-c2n[nH]c3ccc(-c4ccn([C@H](CO)c5cccc(C(F)(F)F)c5)c(=O)c4)cc23)cn1 [Example 42, (S)-1-(2-hydroxy-1-(3-(trifluoromethyl)phenyl)ethyl)-4-(3-(1-methyl-1H-pyrazol-4-yl)-1H-indazol-5-yl)pyridin-2(1H)-one] | < 10 nM | 500 to 1000 nM |
| CC(C)Oc1ccc(-c2n[nH]c3ccc(-c4ccn([C@H](CO)c5cccc(C(F)(F)F)c5)c(=O)c4)cc23)cn1 [Example 43, (S)-1-(2-hydroxy-1-(3-(trifluoromethyl)phenyl)ethyl)-4-(3-(6-isopropoxypyridin-3-yl)-1H-indazol-5-yl)pyridin-2(1H)-one] | < 10 nM | 1000 to 5000 nM |
| CC(C)Oc1ccc(-c2n[nH]c3ccc(-c4ccn([C@H](CO)c5cccc(Br)c5)c(=O)c4)cc23)cn1 [Example 44, (S)-1-(1-(3-bromophenyl)-2-hydroxyethyl)-4-(3-(6-isopropoxypyridin-3-yl)-1H-indazol-5-yl)pyridin-2(1H)-one] | < 10 nM | 500 to 1000 nM |
